Test results as given in patent publication US20230398130A1, “METHODS AND COMPOSITIONS FOR DIFFERENTIATING STEM CELLS” (Massachusetts Institute of Technology, priority 2020, published 2023).
Counter-ions that a name gives are not always drawn.

System: ISC-enriched organoids
Assay: Primary screen, 384-well 2.5-D organoid differentiation (ENR+CD, 6 days, Target Selective Inhibitor Library, vs whole-plate median): ATP (CellTiter-Glo 3D, CTG)
Settings: for Z.CTG: standard z score of FC

`CCc1nc(N)nc(N)c1-c1ccc(Cl)cc1` [Pyrimethamine] was tested, and the “Z.CTG (standard z score)” value (Dose 0.08 uM, primary screen) was 0.016, the “Z.CTG (standard z score)” value (Dose 0.40 uM, primary screen) was −0.618 and the “Z.CTG (standard z score)” value (Dose 2.00 uM, primary screen) was −0.994. For the same compound, the “Z.CTG (standard z score)” value (Dose 10.00 uM, primary screen) was −1.480.
Work on `COc1ccc(-c2nc3ccc(C4=NNC(=O)CC4C)cc3[nH]2)cc1` (stereo not drawn) [Pimobendan] yielded a Z.CTG (Dose 0.08 uM) of −0.053, a Z.CTG (Dose 0.40 uM) of 0.460 and a Z.CTG (Dose 2.00 uM) of 0.492. It also gave a Z.CTG (Dose 10.00 uM) of 0.333.
Compound `C=C1C(=O)O[C@@H]2/C=C(\C)CC/C=C(\C)CC[C@@H]12` [Costunolide] has a Z.CTG (Dose 0.08 uM) of −0.070, a Z.CTG (Dose 0.40 uM) of 0.288 and a Z.CTG (Dose 2.00 uM) of 0.120. It also gave a Z.CTG (Dose 10.00 uM) of 0.019.
`CCCCN1CCCCC1C(=O)Nc1c(C)cccc1C` (stereo not drawn) [Bupivacaine HCl] gave a Z.CTG (Dose 10.00 uM) of −0.870, a Z.CTG (primary screen, dose 0.08 uM) of −0.008 and a Z.CTG (primary screen, dose 0.40 uM) of −0.517. It also gave a Z.CTG (primary screen, dose 2.00 uM) of −0.717.
In the case of `Oc1nc(-c2ccc(C(F)(F)F)cc2)nc2c1CSCC2` [XAV-939], the “Z.CTG (standard z score)” value (dose 0.08 uM) is reported as −0.792, the “Z.CTG (standard z score)” value (dose 0.40 uM) is reported as −0.065 and the “Z.CTG (standard z score)” value (dose 2.00 uM) is reported as −0.847. The “Z.CTG (standard z score)” value (dose 10.00 uM) was −2.147.
With `COc1cc2c(cc1OC)CN(CCc1ccc(NC(=O)c3cc(OC)c(OC)cc3NC(=O)c3cnc4ccccc4c3)cc1)CC2` [Tariquidar] the “Z.CTG (standard z score)” value (Dose 0.08 uM, primary screen) was −0.280, the “Z.CTG (standard z score)” value (Dose 0.40 uM, primary screen) was 0.128 and the “Z.CTG (standard z score)” value (Dose 2.00 uM, primary screen) was 0.899. For the same compound, the “Z.CTG (standard z score)” value (Dose 10.00 uM, primary screen) was 0.543.
`CCOC(=O)C1=C(COCCN)NC(C)=C(C(=O)OC)C1c1ccccc1Cl` (stereo not drawn) [Amlodipine] showed a Z.CTG (primary screen, dose 0.08 uM) of −0.837, a Z.CTG (primary screen, dose 0.40 uM) of −0.866 and a Z.CTG (primary screen, dose 2.00 uM) of −0.888. For the same compound, the Z.CTG (primary screen, dose 10.00 uM) was −1.006.
In the case of `Clc1ccccc1CN1CCc2sccc2C1` [Ticlopidine HCl], the “Z.CTG (standard z score)” value (dose 0.08 uM) is reported as −0.281, the “Z.CTG (standard z score)” value (dose 0.40 uM) is reported as −0.097 and the “Z.CTG (standard z score)” value (dose 2.00 uM) is reported as −0.559. The “Z.CTG (standard z score)” value (dose 10.00 uM) was −0.013.
For `CC(C)NCC(O)COc1cccc2ccccc12` (stereo not drawn) [Propranolol HCl], the “Z.CTG (standard z score)” value (Dose 0.08 uM, primary screen) was 0.158, the “Z.CTG (standard z score)” value (Dose 0.40 uM, primary screen) was 0.129 and the “Z.CTG (standard z score)” value (Dose 2.00 uM, primary screen) was 0.279. The “Z.CTG (standard z score)” value (Dose 10.00 uM, primary screen) was 0.400.
`C=C[C@@]1(C)CC(=O)[C@]2(O)[C@@]3(C)[C@@H](O)CCC(C)(C)[C@@H]3[C@H](O)[C@H](OC(C)=O)[C@@]2(C)O1` [Forskolin] was tested, and the Z.CTG (Dose 0.08 uM) was −0.508, the Z.CTG (Dose 0.40 uM) was −0.418 and the Z.CTG (Dose 2.00 uM) was −0.789. For the same compound, the Z.CTG (Dose 10.00 uM) was −0.284.
Compound `CC(C)NCC(O)COc1ccc(COCCOC(C)C)cc1` (stereo not drawn) [Bisoprolol fumarate] has a Z.CTG (primary screen, dose 0.08 uM) of −0.249, a Z.CTG (primary screen, dose 0.40 uM) of −0.136 and a Z.CTG (primary screen, dose 2.00 uM) of −0.048. The Z.CTG (primary screen, dose 10.00 uM) was 0.139.
In the case of `O=C(O)/C=C/c1ccc(Cn2ccnc2)cc1` [Ozagrel HCl], the Z.CTG (Dose 0.08 uM) is reported as 0.118, the Z.CTG (Dose 0.40 uM) is reported as 0.318 and the Z.CTG (Dose 2.00 uM) is reported as 0.437. For the same compound, the Z.CTG (Dose 10.00 uM) was 0.547.
`COc1ccc([C@]2(C#N)CC[C@@H](C(=O)O)CC2)cc1OC1CCCC1` [Cilomilast] showed a Z.CTG (Dose 0.08 uM) of −0.799, a Z.CTG (Dose 0.40 uM) of −0.807 and a Z.CTG (Dose 2.00 uM) of −0.562. For the same compound, the Z.CTG (Dose 10.00 uM) was −0.458.
Work on `COc1ccc(C(=O)N2CCCC2=O)cc1` [Aniracetam] yielded a Z.CTG (primary screen, dose 0.08 uM) of −0.211, a Z.CTG (primary screen, dose 0.40 uM) of 0.267 and a Z.CTG (primary screen, dose 2.00 uM) of 0.130. For the same compound, the Z.CTG (primary screen, dose 10.00 uM) was 0.045.
With `CCCN[C@H]1CCc2nc(N)sc2C1` [Pramipexole] the “Z.CTG (standard z score)” value (Dose 0.08 uM, primary screen) was 0.261, the “Z.CTG (standard z score)” value (Dose 0.40 uM, primary screen) was 0.436 and the “Z.CTG (standard z score)” value (Dose 2.00 uM, primary screen) was 0.062. The “Z.CTG (standard z score)” value (Dose 10.00 uM, primary screen) was 0.551.
Work on `COCCCC/C(=N\OCCN)c1ccc(C(F)(F)F)cc1` [Fluvoxamine maleate] yielded a Z.CTG (Dose 0.08 uM) of 0.274, a Z.CTG (Dose 0.40 uM) of 0.607 and a Z.CTG (Dose 2.00 uM) of 0.504. It also gave a Z.CTG (Dose 10.00 uM) of 0.330.
In the case of `Cc1[nH]c(/C=C2\C(=O)Nc3ccc(S(=O)(=O)N(C)c4cccc(Cl)c4)cc32)c(C)c1C(=O)N1CCN(C)CC1` [SU11274], the “Z.CTG (standard z score)” value (Dose 0.08 uM, primary screen) is reported as 0.852, the “Z.CTG (standard z score)” value (Dose 0.40 uM, primary screen) is reported as 0.645 and the “Z.CTG (standard z score)” value (Dose 2.00 uM, primary screen) is reported as 0.139. The “Z.CTG (standard z score)” value (Dose 10.00 uM, primary screen) was −1.954.
`COc1ccccc1OCCNCC(O)COc1cccc2[nH]c3ccccc3c12` (stereo not drawn) [Carvedilol] gave a Z.CTG (Dose 0.08 uM) of 0.136, a Z.CTG (Dose 0.40 uM) of −0.034 and a Z.CTG (Dose 2.00 uM) of −0.360. For the same compound, the Z.CTG (Dose 10.00 uM) was −0.577.
In the case of `CC(=O)OCC(=O)NCCCOc1cccc(CN2CCCCC2)c1` [Roxatidine Acetate HCl], the “Z.CTG (standard z score)” value (Dose 0.08 uM, primary screen) is reported as −0.095, the “Z.CTG (standard z score)” value (Dose 0.40 uM, primary screen) is reported as 0.050 and the “Z.CTG (standard z score)” value (Dose 2.00 uM, primary screen) is reported as −0.245. For the same compound, the “Z.CTG (standard z score)” value (Dose 10.00 uM, primary screen) was −0.564.
Compound `O=C(/C=C/c1ccc(O)c(O)c1)OCCc1ccccc1` [Caffeic Acid Phenethyl Ester] has a Z.CTG (Dose 0.08 uM) of 0.627, a Z.CTG (Dose 0.40 uM) of −0.026 and a Z.CTG (Dose 2.00 uM) of −0.152. It also gave a Z.CTG (Dose 10.00 uM) of −1.221.
`O=C(N/N=C/c1ccc(O)c(O)c1)c1cc2ccccc2cc1O` [Dynasore] gave a Z.CTG (Dose 0.08 uM) of −0.592, a Z.CTG (Dose 0.40 uM) of −0.604 and a Z.CTG (Dose 2.00 uM) of −0.364. It also gave a Z.CTG (Dose 10.00 uM) of −0.026.
